Experiments:
RSV A2 = assay: microbe, parasite or virus in culture; type: cell-based; details: human respiratory syncytial virus, HEp-2, 72 h, read-out: RSV A2 / Hep2 EC50
HRV 14 = assay: microbe, parasite or virus in culture; type: cell-based, Human Rhinovirus 14 strain 1059; details: Rhinovirus B, H1-HeLa, 48 h, read-out: HRV / H1 HeLa B 14 EC50
SARS-CoV-2 = assay: microbe, parasite or virus in culture; type: cell-based, SARS-CoV-2 strain USA-WA1/2020; details: Severe acute respiratory syndrome coronavirus 2, HeLa-ACE2, 24 h, read-out: SARS-CoV-2 / HeLa-ACE2 EC50
in vitro [1] = details: human, hepg2 cells
in vitro [2] = details: human, hep2 cells
DENV-2 = assay: microbe, parasite or virus in culture; type: cell-based, DENV-2 16681; details: Dengue virus, DENV2, HepG2, 24 h, read-out: DENV-2 / HepG2 EC50
in vitro [3] = details: human, h1 hela cells
in vitro [4] = details: human, hela-ace2 cells

| Structure (SMILES) | EC50 (RSV A2) | EC50 (HRV 14) | EC50 (SARS-CoV-2) | CC50 at 72 h (in vitro [1]) | CC50 (in vitro [2]) | EC50 (DENV-2) | CC50 (in vitro [3]) | CC50 at 24 h (in vitro [4]) |
| --- | --- | --- | --- | --- | --- | --- | --- | --- |
| CNc1nc(N)nc2c1ncn2[C@@H]1O[C@](F)(COP(=O)(N[C@@H](C)C(=O)OC(C)C)Oc2ccccc2)[C@@H](O)[C@]1(F)Cl (single isomer, unassigned) [Example 58] | > 10 µM | 0.1 to 1 µM | > 10 µM | > 99 µM | > 99 µM | 0.1 to 1 µM | > 99 µM | > 99 µM |
| CNc1nc(N)nc2c1ncn2[C@@H]1O[C@](F)(COP(=O)(N[C@@H](C)C(=O)OC(C)C)Oc2ccccc2)[C@@H](O)[C@]1(F)Cl (single isomer, unassigned) [Example 59] | > 10 µM | 1 to 10 µM | > 10 µM | > 99 µM | > 99 µM | 1 to 10 µM | > 99 µM | > 99 µM |
| CO[C@]1(CO)O[C@@H](c2ccc3c(N)ncnn23)[C@](C)(O)[C@@H]1O [Example 3, (2R,3S,4R,5S)-5-(4-aminopyrrolo[2,1-f][1,2,4]triazin-7-yl)-2-(hydroxymethyl)-2-methoxy-4-methyltetrahydrofuran-3,4-diol] | > 10 µM | > 10 µM | > 10 µM | > 99 µM | > 99 µM | > 10 µM | > 99 µM | > 99 µM |
| [N-]=[N+]=N[C@]1(CO)C[C@@H](O)[C@H](n2ccc3c(N)ncnc32)O1 [Example 8, (2R,3R,5R)-2-(4-amino-7H-pyrrolo[2,3-d]pyrimidin-7-yl)-5-azido-5-(hydroxymethyl)tetrahydrofuran-3-ol] | > 10 µM | > 10 µM | > 10 µM | > 99 µM | > 99 µM | > 10 µM | > 99 µM | > 99 µM |
| C[C@]1(O)[C@H](c2ccc3c(N)ncnn23)O[C@@](CO)(N=[N+]=[N-])[C@H]1O [Example 9, (2R,3S,4R,5S)-5-(4-aminopyrrolo[2,1-f][1,2,4]triazin-7-yl)-2-azido-2-(hydroxymethyl)-4-methyltetrahydrofuran-3,4-diol] | > 10 µM | > 10 µM | > 10 µM | > 99 µM | > 99 µM | > 10 µM | > 99 µM | > 99 µM |
| Nc1ncnc2c1ccn2[C@@H]1O[C@](F)(CO)C[C@H]1O [Example 11, (2R,3R,5R)-2-(4-amino-7H-pyrrolo[2,3-d]pyrimidin-7-yl)-5-fluoro-5-(hydroxymethyl)tetrahydrofuran-3-ol] | > 10 µM | > 10 µM | > 10 µM | 10 to 99 µM | > 99 µM | > 10 µM | 10 to 99 µM | > 99 µM |
| Nc1ncnc2c1ccn2[C@@H]1O[C@@](F)(CO)C[C@H]1O [Example 12, (2R,3R,5S)-2-(4-amino-7H-pyrrolo[2,3-d]pyrimidin-7-yl)-5-fluoro-5-(hydroxymethyl)tetrahydrofuran-3-ol] | > 10 µM | > 10 µM | > 10 µM | > 99 µM | > 99 µM | > 10 µM | 10 to 99 µM | > 99 µM |
| CSc1nc(N)nc2c1ncn2[C@@H]1O[C@](F)(CO)[C@@H](O)[C@H]1O [Example 28] | 0.1 to 1 µM | > 10 µM | > 10 µM | 1 to 10 µM | 1 to 10 µM | 0.1 to 1 µM | 1 to 10 µM | 1 to 10 µM |
| N#Cc1cn([C@@H]2O[C@](F)(CO)[C@@H](O)[C@H]2O)c2nc[nH]c(=O)c12 [Example 37, 7-((2R,3R,4S,5S)-5-fluoro-3,4-dihydroxy-5-(hydroxymethyl)tetrahydrofuran-2-yl)-4-oxo-4,7-dihydro-3H-pyrrolo[2,3-d]pyrimidine-5-carbonitrile] | > 10 µM | > 10 µM | > 10 µM | > 99 µM | > 99 µM | > 10 µM | > 99 µM | > 99 µM |
| COc1ncnc2c1c(C(N)=O)cn2[C@@H]1O[C@](F)(CO)[C@@H](O)[C@H]1O [Example 38, 7-((2R,3R,4S,5S)-5-fluoro-3,4-dihydroxy-5-(hydroxymethyl)tetrahydrofuran-2-yl)-4-methoxy-7H-pyrrolo[2,3-d]pyrimidine-5-carboxamide] | > 10 µM | > 10 µM | > 10 µM | 1 to 10 µM | 10 to 99 µM | 1 to 10 µM | 10 to 99 µM | < 1 µM |
| COc1ncnc2c1ccn2[C@@H]1O[C@](F)(CO)C[C@H]1O [Example 39, (2R,3R,5R)-5-fluoro-5-(hydroxymethyl)-2-(4-methoxy-7H-pyrrolo[2,3-d]pyrimidin-7-yl)tetrahydrofuran-3-ol] | > 10 µM | > 10 µM | > 10 µM | > 99 µM | > 99 µM | > 10 µM | > 99 µM | > 99 µM |
| Nc1ncnc2c1c(C(F)(F)F)cn2[C@@H]1O[C@](F)(CO)[C@@H](O)[C@H]1O [Example 42, (2S,3S,4R,5R)-5-(4-amino-5-(trifluoromethyl)-7H-pyrrolo[2,3-d]pyrimidin-7-yl)-2-fluoro-2-(hydroxymethyl)tetrahydrofuran-3,4-diol] |  |  |  | < 1 µM |  | < 0.1 µM |  |  |
| CC(C)C(=O)OC[C@@]1(F)O[C@@H](n2ccc3c(N)ncnc32)[C@H](O)[C@@H]1O [Example 46, ((2S,3S,4R,5R)-5-(4-amino-7H-pyrrolo[2,3-d]pyrimidin-7-yl)-2-fluoro-3,4-dihydroxytetrahydrofuran-2-yl)methyl isobutyrate] | 0.1 to 1 µM | 0.1 to 1 µM | 0.1 to 1 µM | 1 to 10 µM | 10 to 99 µM | < 0.1 µM | 10 to 99 µM | 1 to 10 µM |
| CC(C)C(=O)OC[C@@]1(F)O[C@@H](n2ccc3c(N)ncnc32)[C@H](OC(=O)C(C)C)[C@@H]1OC(=O)C(C)C [Example 47, (2S,3S,4R,5R)-5-(4-amino-7H-pyrrolo[2,3-d]pyrimidin-7-yl)-2-fluoro-2-((isobutyryloxy)methyl)tetrahydrofuran-3,4-diyl bis(2-methylpropanoate)] | < 0.1 µM | 1 to 10 µM | 1 to 10 µM | 1 to 10 µM | 1 to 10 µM | < 0.1 µM | 10 to 99 µM | 10 to 99 µM |
| N#C[C@@]1(c2cnc3c(N)ncnn23)O[C@](F)(CO)[C@@H](O)[C@H]1O [Example 51, (2R,3R,4S,5S)-2-(4-aminoimidazo[2,1-f][1,2,4]triazin-7-yl)-5-fluoro-3,4-dihydroxy-5-(hydroxymethyl)tetrahydrofuran-2-carbonitrile] | > 10 µM | > 10 µM | > 10 µM | > 99 µM | > 99 µM | > 10 µM | > 99 µM | > 99 µM |
| Nc1ncnc2c1cnn2[C@@H]1O[C@](F)(CO)[C@@H](O)[C@H]1O [Example 52, (2S,3S,4R,5R)-5-(4-amino-1H-pyrazolo[3,4-d]pyrimidin-1-yl)-2-fluoro-2-(hydroxymethyl)tetrahydrofuran-3,4-diol] | > 10 µM | 1 to 10 µM | 1 to 10 µM | < 1 µM | 1 to 10 µM | 1 to 10 µM | 1 to 10 µM | 1 to 10 µM |
| Cc1ncnc2c1ccn2[C@@H]1O[C@](F)(CO)[C@@H](O)[C@H]1O [Example 53, (2S,3S,4R,5R)-2-fluoro-2-(hydroxymethyl)-5-(4-methyl-7H-pyrrolo[2,3-d]pyrimidin-7-yl)tetrahydrofuran-3,4-diol] | > 10 µM | > 10 µM |  | 10 to 99 µM | > 99 µM | 1 to 10 µM | > 99 µM |  |
| OC[C@@]1(F)O[C@@H](n2ccc3c(C4CC4)ncnc32)[C@H](O)[C@@H]1O [Example 54, (2S,3S,4R,5R)-5-(4-cyclopropyl-7H-pyrrolo[2,3-d]pyrimidin-7-yl)-2-fluoro-2-(hydroxymethyl)tetrahydrofuran-3,4-diol] | > 10 µM | > 10 µM |  | > 99 µM | > 99 µM | > 10 µM | > 99 µM |  |
| Nc1ncnc2c1c(-c1nc3ccccc3s1)cn2[C@@H]1O[C@](F)(CO)[C@@H](O)C1(F)F [Example 55, (2S,3R,5R)-5-(4-amino-5-(benzo[d]thiazol-2-yl)-7H-pyrrolo[2,3-d]pyrimidin-7-yl)-2,4,4-trifluoro-2-(hydroxymethyl)tetrahydrofuran-3-ol] |  |  | < 0.1 µM |  |  |  |  | 1 to 10 µM |
| CC(C)OC(=O)[C@H](C)NP(=O)(OC[C@@]1(F)O[C@@H](n2cnc3c(=O)[nH]c(N)nc32)C(F)(F)[C@@H]1O)Oc1ccccc1 (stereo partly drawn) [Example 61, isopropyl ((((2S,3R,5R)-5-(2-amino-6-oxo-1,6-dihydro-9H-purin-9-yl)-2,4,4-trifluoro-3-hydroxytetrahydrofuran-2-yl)methoxy)(phenoxy)phosphoryl)-L-alaninate] |  |  |  | > 99 µM |  | > 10 µM |  |  |

From patent US20260325561A1, “4'-SUBSTITUTED NUCLEOSIDES AND NUCLEOTIDES AS ANTIVIRAL AGENTS” (THE SCRIPPS RESEARCH INSTITUTE, priority 2023, published 2026)
